Experimental findings from patent publication EP0293220B1, “Pharmacologically active 2-and 3-substituted (1', 5'-diaryl-3-pyrazolyl)-N-Hydroxypropanamides and method for synthesizing” (ORTHO PHARMACEUTICAL CORPORATION, priority 1987, dated 1988) are described below.

One assay concerns Polyarthritis. In words: Polyarthritis induced by Mycobacterium butyricum in rats: inhibition of paw volume increase after oral dosing. The conditions noted are these: percent inhibition of paw volume increase. It is filed as in vivo, Lewis strain laboratory rats. On the procedure: Polyarthritis was induced in Lewis strain laboratory rats (weight = about 200 grams) by injection of a suspension of Mycobacterium butyricum in mineral oil into the subplantar tissue of the mammal's hind paws. On day 10 after the injection, the rats were assigned to groups, and paw volumes and body weights were recorded. Paw volumes of the contralateral, uninjected hind paw were determined by mercury plethylsmography. Per oral (p.o.) dosing began and continued for five consecutive days thereafter. On day 14 after the initial injection, approximately four hours after the final dose was administered, paw volumes and body weights were recorded and quantitated.
Anti-inflammatory activity of the N-hydroxypropanamide pyrazole compounds is expressed as the percent inhibition of paw volume increase.

The next assay deals with T1, lipoxygenase (Rattus norvegicus, UniProt P12527).
T1 construct: endogenous in cells; host or cells: pleural exudate cells of carrageenan-treated Sprague-Dawley rats
T1 sequence (P12527 1-673): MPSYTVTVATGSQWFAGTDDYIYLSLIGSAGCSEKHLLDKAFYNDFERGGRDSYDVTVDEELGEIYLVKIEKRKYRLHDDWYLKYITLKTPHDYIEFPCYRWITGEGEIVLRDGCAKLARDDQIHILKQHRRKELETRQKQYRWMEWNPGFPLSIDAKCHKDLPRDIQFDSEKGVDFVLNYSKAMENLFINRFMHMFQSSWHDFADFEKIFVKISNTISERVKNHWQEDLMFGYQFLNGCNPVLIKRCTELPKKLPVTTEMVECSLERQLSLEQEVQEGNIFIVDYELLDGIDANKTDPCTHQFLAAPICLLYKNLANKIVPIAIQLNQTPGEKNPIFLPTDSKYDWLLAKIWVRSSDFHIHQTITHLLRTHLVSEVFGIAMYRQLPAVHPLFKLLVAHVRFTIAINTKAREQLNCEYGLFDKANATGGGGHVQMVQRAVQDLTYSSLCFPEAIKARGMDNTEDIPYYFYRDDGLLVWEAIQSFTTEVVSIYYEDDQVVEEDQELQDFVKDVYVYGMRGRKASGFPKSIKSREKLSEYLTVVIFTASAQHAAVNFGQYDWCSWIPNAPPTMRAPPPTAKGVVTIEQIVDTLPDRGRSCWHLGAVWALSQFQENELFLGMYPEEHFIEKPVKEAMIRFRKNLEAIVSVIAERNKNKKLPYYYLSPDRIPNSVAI
In words: Ex vivo arachidonic acid metabolism of rat pleural exudate cells after oral dosing, lipoxygenase products (5-HETE, leukotriene B₄). It is filed as in vivo, Sprague-Dawley rats. The conditions noted are these: for inhibition at 30 mg/kg: 30 mpk; for ED50: oral dose, ex vivo rat pleural exudate cells, read-out: IC₅₀, p.o. Lipoxygenase. On the procedure: This assay determines the ability of orally administered compounds to inhibit arachidonic acid metabolism with rat pleural exudate cells, via the lipoxygenase and/or cyclooxygenase enzymes. Sprague-Dawley rats (250 - 275 gm) are fasted overnight. The next morning, an acute inflammatory response is induced by the intra-thoracic injection of 1 ml of 0.25% carrageenan. Three hours later the rats are dosed orally with the test compounds at a screening dose of 16.5-30 mpk. Thirty minutes to one hour later the rats are sacrificed and pleural fluid harvested. The exudate fluids are diluted 1:5 using Hanks BSS and stimulated using 10 µg/ml calcium ionophore A-23187. The reaction is stopped after 15 minutes by the addition of 25 µl of 1N HCl, and the samples are centrifuged at 1000 g to sediment the cells. The supernate is extracted and applied to a C-18 HPLC column. The arachidonic acid metabolites 12-HHT (cyclooxygenase), 5-HETE, and leukotriene B₄ (lipoxygenase) are eluted using an acetonitrile methanol gradient and detected by UV absorption at 235 and 270 nm. The percent inhibition of the arachidonic acid metabolites is indicative of the anti-inflammatory activity of the tested compound and the results of this method for several compounds of the invention are listed in Table 13. The values shown are the percent inhibition at the dose indicated except for the those cases in which the IC₅₀ value is given.

[1] abbreviates: rat, po, exudate cells stimulated with 10 µg/ml calcium ionophore A-23187, read-out: %INH., p.o. Lipoxygenase (mpk).

For the molecule `COc1ccc(-n2nc(C(O)c3ccc(C)cc3)cc2-c2ccc(C)cc2)cc1` (stereo not drawn) [Compound 92], the “%INH., p.o. (mpk)” value in the assay on Polyarthritis (10 mpk) was found to be 27% @ 10.

As for `COc1ccc(-n2nc(C(O)c3ccc4ccccc4c3)cc2-c2ccc(C)cc2)cc1` (stereo not drawn) [Compound 94], in the assay with Polyarthritis (10 mpk), the “%INH., p.o. (mpk)” value is 29% @ 10. Take `COc1ccc(-c2cc(C(O)c3ccccc3)nn2-c2ccc(OC)cc2)cc1` (stereo not drawn) [Compound 105, [1,5-Bis(4-methoxyphenyl)-3-pyrazolyl]-1-phenylmethanol]: the “%INH., p.o. (mpk)” value with Polyarthritis (15 mpk) is on record as 49% @ 15. Consider `COc1ccc(-n2nc(C(=O)c3ccc(Cl)cc3)cc2-c2ccc(C)cc2)cc1` [Compound 108], for which the “%INH., p.o. (mpk)” value in the assay on Polyarthritis (10 mpk) is 25% @ 10. As for `COc1ccc(-n2nc(C(=O)c3ccc(C)cc3)cc2-c2ccc(C)cc2)cc1` [Compound 109, 1-(4-Methoxyphenyl)-3-(4-methylbenzoyl)-5-(4-methylphenyl)pyrazole], the inhibition at 30 mg/kg at lipoxygenase (setting [1]) amounted to 62%.

Consider `CCOC(=O)/C=C(/c1ccc(C)cc1)c1cc(-c2ccc(C)cc2)n(-c2ccc(OC)cc2)n1` [Compound 125, (Z)-Ethyl 3-[1(4-methoxyphenyl)-5-(4-methylphenyl)-3-pyrazolyl]-3-(4-methylphenyl)propenoate], for which, on lipoxygenase, the ED50 worked out at 9 mg/kg. Consider `CCOC(=O)/C=C(/c1ccc(-c2ccccc2)cc1)c1cc(-c2ccc(C)cc2)n(-c2ccc(OC)cc2)n1` [Compound 132], for which the inhibition at 16.5 mg/kg at lipoxygenase (rat, po, 16.5 mpk, exudate cells stimulated with 10 µg/ml calcium ionophore A-23187, read-out: %INH., p.o. Lipoxygenase (mpk)) worked out at 34%. As to `CCOC(=O)CC(c1cc(-c2ccc(C)cc2)n(-c2ccc(OC)cc2)n1)c1cccc2ccccc12` (stereo not drawn) [Compound 150], the inhibition at 30 mg/kg on lipoxygenase (setting [1]) is 42%. With `COc1ccc(-n2nc(/C(=C/C(=O)O)c3ccccc3)cc2-c2ccc(C)cc2)cc1` [Compound 155, (E)-3-[1-(4-Methoxyphenyl)-5-(4-methylphenyl)-3-pyrazolyl]-3-phenyl-2-propenoic acid], the “%INH., p.o. (mpk)” value in the assay with Polyarthritis (10 mpk) was 62% @ 10. In the case of `COc1ccc(-n2nc(/C(=C/C(=O)O)c3ccc(Cl)cc3)cc2-c2ccc(C)cc2)cc1` [Compound 157, (E)-3-(4-Chlorophenyl)-3-[1-(4-methoxyphenyl)-5-(4-methylphenyl)-3-pyrazolyl]propenoic acid], the “%INH., p.o. (mpk)” value in the assay with Polyarthritis (10 mpk) is reported as 24% @ 10. In the case of `COc1ccc(-n2nc(/C(=C\C(=O)O)c3ccc(Cl)cc3)cc2-c2ccc(C)cc2)cc1` [Compound 158, (Z)-3-(4-Chlorophenyl)-3-[1-(4-methoxyphenyl)-5-(4-methylphenyl)-3-pyrazolyl]propenoic acid], the inhibition at 17.5 mg/kg on lipoxygenase (rat, po, 17.5 mpk, exudate cells stimulated with 10 µg/ml calcium ionophore A-23187, read-out: %INH., p.o. Lipoxygenase (mpk)) was 53%. With `COc1ccc(-n2nc(/C(=C/C(=O)N(C)O)c3ccc(F)cc3)cc2-c2ccc(C)cc2)cc1` [Compound 163, (E)-3-(4-Fluorophenyl)-N-hydroxy-3-[1-(4-methoxyphenyl)-5-(4-methylphenyl)-3-pyrazolyl]-N-methylpropenamide], the ED50 at lipoxygenase stood at 10 mg/kg. For the molecule `COc1ccc(-n2nc(/C(=C/C(=O)N(C)O)c3ccc(Cl)cc3)cc2-c2ccc(C)cc2)cc1` [Compound 164], the “%INH., p.o. (mpk)” value in the assay on Polyarthritis (10 mpk) came to 22% @ 10. `COc1ccc(-n2nc(/C(=C\C(=O)N(C)O)c3ccc(Cl)cc3)cc2-c2ccc(C)cc2)cc1` [Compound 165]: the inhibition at 30 mg/kg on lipoxygenase (setting [1]) amounted to 12%.

For `COc1ccc(-n2nc(/C(=C/C(=O)N(C)O)c3ccc(-c4ccccc4)cc3)cc2-c2ccc(C)cc2)cc1` [Compound 168], the inhibition at 30 mg/kg at lipoxygenase (setting [1]) is 3%.
